Measured values as given in paper PMC5578999, “Novel quinolone chalcones targeting colchicine-binding pocket kill multidrug-resistant cancer cells by inhibiting tubulin activity and MRP1 function” (Scientific Reports, 2017).

Legend:
Assay type in all cases: cell-based
[1] = tested on: non-cancerous cells (MCF 10A and 184B5); experiment: SRB cell viability, cancer vs non-cancer cells; settings: cancer cells vs MCF 10A and 184B5
Method: and MCF10AT1 cells were cultured in Dulbecco's Modified Eagle's Medium/Ham's Nutrient Mixture F-12 (DME/F12) supplemented with 10% (volume/volume) FBS , 100 μg/ml streptom ycin and 100 units/ml penicillin, antim ycotic solution, 0.5 μg/ml hydrocortisone, 10 ng/ml human epiderm al growth factor (hEGF) and 5 μg/ml insulin, whereas MCF10CA1a cell line was cultured in DM EM supplemented with 10% FBS (volume/volume). […]
(§1) Dr. Susan Cole (Queen’s Universit y, Kingston, Ontario, Canada). The pacl itaxel-resistant MDA-MB-231TaxR cell line was generated in house b y culturing MDA-MB-231 cells (purchased from ATCC and authen ticated ) in the gradual l y incr easi ng con centr ations of pacl itax el until the concentration reached to 100 nM. Cell line authentication was carried out by Genetica DNA Laboratories (Burlington, NC) using a short tandem repeat (STR) profiling method (March 2015; […]
(§2) Cell viability, com binational i ndex and cell synchronization
(§3) Cell viability and proliferation were ex amined using a s ulforhodamine B (SRB) assa y as described previousl y (Hu et al., 2008). IC 50 values were calculat ed from si gmoidal dose-response cu rves gen erat ed b y at least two indepen dent ex periments , with each quadruplicate samples, using GraphPad Prism v.5.04 software (GraphPad Software, Inc, La J olla, CA). […]

MRP1 = molecular target: T1, MRP1 (Homo sapiens, UniProt P33527); experiment: Rh123 dye efflux assay, HEK293-MRP1 cells; settings: 22 µmol/L of drug, DMSO control 39.6%
T1 construct: expressed in transfected cells; host or cells: HEK293-MRP1 (gift of Dr. Susan Cole)
Method: Rhodamine123 (Rh123) drug efflux was carried out using a Multidrug-Resistance Direct Dye Efflux Activity Kit (Millipore, Darmstadt, Germany), with some modifications. […] Reading was carried out with a Beckman Coulter FC500 flow cytometer.

HCT-116 = experiment: NCI-60 SRB screen
Excerpt: (§4) Supplementary Table S 3: Antitumor activity of CTR -17 and CTR -20, alone or in combination […]
(§5) a Tax: paclitaxel. b mg per kg of bod y wei ght. c unit is mm 3.
(§6) Supplementary Figure l egend
(§7) 10μ M of CTR-20 was used to examine the drug’s efficac y against the NC I-60 cancer cell li nes including: six leukemia cell lines, nine non- small cell lung cancer cell lines, seven color ect al cancer cell lines, six CNS cancer cell lines, nine melanoma cell lines, seven ovari an can cer cell lines, seven ren al can cer cell lines, two prostate cancer cell lines and six breast cancer cell lines. The scr eenin g was car r ied out b y the US National Cancer Institute (NC I) us i n g a sulforhodamine B (SRB) colorimetric assay. […]
(§8) out by the NC I using five different doses of CTR -20.

ACHN = experiment: NCI-60 SRB screen; settings: 1.00E-5 Molar
Excerpt: as §4, §5, §6, §7, §8

HS 578T = experiment: NCI-60 SRB screen
Excerpt: as §4, §5, §6, §7, §8

MCF 10A = experiment: SRB cell survival, MCF 10A isogenic lines; settings: 0.39 μmol/L; MCF 10A (non-cancer)
Method: (§9) and MCF10AT1 cells were cultured in Dulbecco's Modified Eagle's Medium/Ham's Nutrient Mixture F-12 (DME/F12) supplemented with 10% (volume/volume) FBS , 100 μg/ml streptom ycin and 100 units/ml penicillin, antim ycotic solution, 0.5 μg/ml hydrocortisone, 10 ng/ml human epiderm al growth factor (hEGF) and 5 μg/ml insulin, whereas MCF10CA1a cell line was cultured in DM EM supplemented with 10% FBS (volume/volume). KB-3- 1, parental human epidermoid carcinoma cell line and KB-C2, an isogenic MDR1- overexpressing drug-resistant cell line, were kindl y provided b y Dr. Amit K Tiwari, the Universit y of Toledo, OH.
as §1, with “Parental HEK293 and M RP1- overexpressing HEK293- MRP1 isogenic cel ls were kind gifts of Dr.” for “Dr.”
as §2
as §3, with “CA). For combinational experiments on the KB -C-2 cells, CTR compounds and pacli taxel or ABT - 737/ABT-199 w ere us ed at or below IC 50 . The combinational index (CI) w as calculat ed as previousl y described (Chou, 2006).” for “CA).”
(§10) Cell cycl e pro gr ession in the absence (sham) o r pr esence o f compound(s ) was determined with a Beckman Coulter Epics Elite FC 500 Flow C ytom eter as described previousl y (Romero

MCF 10CA1a = experiment: SRB cell survival, MCF 10A isogenic lines; settings: 0.39 μmol/L; MCF 10AC1a (fully malignant)
Method: as §9
as §1, with “Parental HEK293 and M RP1- overexpressing HEK293- MRP1 isogenic cel ls were kind gifts of Dr.” for “Dr.”
as §2
as §3, with “CA). For combinational experiments on the KB -C-2 cells, CTR compounds and pacli taxel or ABT - 737/ABT-199 w ere us ed at or below IC 50 . The combinational index (CI) w as calculat ed as previousl y described (Chou, 2006).” for “CA).”
as §10

MCF 10AT1 = experiment: SRB cell survival, MCF 10A isogenic lines; settings: 0.39 μmol/L; MCF 10AT1 (premalignant)
Method: as §9
as §1, with “Parental HEK293 and M RP1- overexpressing HEK293- MRP1 isogenic cel ls were kind gifts of Dr.” for “Dr.”
as §2
as §3, with “CA). For combinational experiments on the KB -C-2 cells, CTR compounds and pacli taxel or ABT - 737/ABT-199 w ere us ed at or below IC 50 . The combinational index (CI) w as calculat ed as previousl y described (Chou, 2006).” for “CA).”
as §10

[2] = Homo sapiens, read-out: LC50 (the source's name)

T1 sequence (P33527 whole entry): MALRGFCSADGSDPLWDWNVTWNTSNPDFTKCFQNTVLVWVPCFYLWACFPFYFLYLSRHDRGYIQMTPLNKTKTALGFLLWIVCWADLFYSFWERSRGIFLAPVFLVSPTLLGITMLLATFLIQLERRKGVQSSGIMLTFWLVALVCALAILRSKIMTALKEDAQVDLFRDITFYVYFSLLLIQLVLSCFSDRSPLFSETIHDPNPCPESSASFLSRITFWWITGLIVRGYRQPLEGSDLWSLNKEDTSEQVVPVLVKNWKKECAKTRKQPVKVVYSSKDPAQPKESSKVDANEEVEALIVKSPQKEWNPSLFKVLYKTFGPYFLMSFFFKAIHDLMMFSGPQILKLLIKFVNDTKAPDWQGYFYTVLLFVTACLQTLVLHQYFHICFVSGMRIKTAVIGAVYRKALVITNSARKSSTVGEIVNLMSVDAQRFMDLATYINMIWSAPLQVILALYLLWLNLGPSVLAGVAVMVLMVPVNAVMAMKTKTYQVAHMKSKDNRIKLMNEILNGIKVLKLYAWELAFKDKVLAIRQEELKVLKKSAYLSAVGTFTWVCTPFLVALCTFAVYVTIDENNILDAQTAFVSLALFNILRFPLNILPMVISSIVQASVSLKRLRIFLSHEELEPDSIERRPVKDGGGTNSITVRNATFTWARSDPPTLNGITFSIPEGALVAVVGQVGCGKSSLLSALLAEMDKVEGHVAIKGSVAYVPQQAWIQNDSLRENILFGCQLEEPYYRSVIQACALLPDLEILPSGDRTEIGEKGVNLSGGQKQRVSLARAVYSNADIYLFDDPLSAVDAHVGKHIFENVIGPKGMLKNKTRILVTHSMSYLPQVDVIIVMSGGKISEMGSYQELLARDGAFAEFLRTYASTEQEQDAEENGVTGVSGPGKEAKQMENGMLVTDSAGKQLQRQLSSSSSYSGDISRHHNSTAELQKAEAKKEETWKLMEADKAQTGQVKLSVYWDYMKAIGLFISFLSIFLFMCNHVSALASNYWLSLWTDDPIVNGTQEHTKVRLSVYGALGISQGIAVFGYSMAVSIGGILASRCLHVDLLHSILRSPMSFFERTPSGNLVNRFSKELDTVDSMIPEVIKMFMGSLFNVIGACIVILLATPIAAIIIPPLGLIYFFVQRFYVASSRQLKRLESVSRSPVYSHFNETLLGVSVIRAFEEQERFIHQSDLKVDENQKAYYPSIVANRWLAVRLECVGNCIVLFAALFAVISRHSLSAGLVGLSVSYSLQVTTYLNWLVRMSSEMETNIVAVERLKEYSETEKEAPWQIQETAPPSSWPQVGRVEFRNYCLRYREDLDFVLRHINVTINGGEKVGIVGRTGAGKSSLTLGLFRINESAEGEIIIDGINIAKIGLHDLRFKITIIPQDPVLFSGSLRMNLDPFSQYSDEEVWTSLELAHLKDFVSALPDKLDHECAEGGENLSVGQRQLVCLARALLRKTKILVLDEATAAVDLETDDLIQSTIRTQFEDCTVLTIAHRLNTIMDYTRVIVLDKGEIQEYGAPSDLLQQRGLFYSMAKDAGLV

## COc1ccc2[nH]c(=O)c(/C=C/C(=O)c3ccccc3OC)cc2c1 [CTR-20, (E)-6-Methoxy-3-(3-(2-methoxyphenyl)-3-oxoprop-1-enyl) quinolin-2(1H)-one]
[1]
  killed cancer cells more effectively than non-cancerous cells: 20–26 folds
MRP1
  Rh123 retention: 81.7%
HCT-116
  Log10GI50: -6.46 Molar
  Log10LC50: -5.26 Molar
  Log10TGI: -5.83 Molar
  TGI: 1.48E-6 Molar
HCT-116; 1.00E-5 Molar
  Growth Percent: 16.04%
HCT-116; Homo sapiens
  GI50: 0.348 µM
HCT-116; [2]
  CC50: 5.48 µM
HCT-116; Log10 Concentration -4.0
  Percent Growth: -96%
HCT-116; Log10 Concentration -5.0
  Percent Growth: -73%
HCT-116; Log10 Concentration -6.0
  Percent Growth: 15%
HCT-116; Log10 Concentration -7.0
  Percent Growth: 92%
HCT-116; Log10 Concentration -8.0
  Percent Growth: 94%
ACHN
  Growth Percent: 38.84%
HS 578T
  Log10LC50: > -4.00 Molar
  Log10TGI: -4.08 Molar
  TGI: 8.38E-5 Molar
HS 578T; 1.00E-5 Molar
  Growth Percent: 8.33%
HS 578T; [2]
  CC50: > 100 µM
HS 578T; Log10 Concentration -4.0
  Percent Growth: -8%
HS 578T; Log10 Concentration -5.0
  Percent Growth: 91%
HS 578T; Log10 Concentration -6.0
  Percent Growth: 37%
HS 578T; Log10 Concentration -7.0
  Percent Growth: 98%
HS 578T; Log10 Concentration -8.0
  Percent Growth: 96%
MCF 10A
  cell survival rate: 75%
MCF 10CA1a
  cell survival rate: 10%
MCF 10AT1
  cell survival rate: 20%

## COc1ccccc1C(=O)/C=C/c1cc2ccccc2[nH]c1=O [CTR-17, (E)-3-(3-(2-Methoxyphenyl)-3-oxoprop-1-enyl)quinolin-2(1H)-one]
[1]
  killed cancer cells more effectively than non-cancerous cells: 20–26 folds
